Assay results reported in article PMC7312375, “A Novel, Pan-PDE Inhibitor Exerts Anti-Fibrotic Effects in Human Lung Fibroblasts via Inhibition of TGF-β Signaling and Activation of cAMP/PKA Signaling” (International Journal of Molecular Sciences, 2020).

Columns and labels:
[1] = tested on: TGF-β1-induced MRC-5 cells; assay: Immunofluorescence, nuclear localization of p-Smad-2; type: cell-based, human; details: 10 µM; compared to TGF-β1 alone
Experimental: For immunocytochemical labeling, MRC-5 cells were seeded on glass coverslips. Study compounds (10 µM) were added 1 h before TGF-β1 treatment, and analysis was performed after 1 h (p-Smad-2 and p-CREB detection) or 48 h (α-SMA detection) of incubation. Cells were fixed in methanol or 4% formaldehyde solution, permeabilized in 0.2% or 0.1% Triton X-100 solution (for p-Smad-2 and p-CREB or α-SMA, respectively). After incubation in blocking solution the following primary antibodies: rabbit polyclonal, anti-phospho-Smad-2 (Ser465, Ser467) antibody (#44-244G, Thermo Fisher Scientific, Waltham, MA, USA); rabbit polyclonal, anti-phospho-CREB1 (Ser133) antibody (#orb213775, Biorbyt, Cambridge, United Kingdom); mouse monoclonal, anti-α-SMA antibody (#MA5-11547, Thermo Fisher Scientific, Waltham, MA, USA) and secondary antibodies: goat anti-rabbit Alexa Fluor 546 conjugated antibody and goat anti-mouse Alexa Fluor 488 conjugated antibody (#A-11010 and #A-11001, respectively, Invitrogen, Carlsbad, CA, USA) were used. […] Slides were mounted in ProLong™ Glass Antifade Mountant (Invitrogen, Carlsbad, CA, USA) and analyzed using Leica DMiL LED Fluo microscope (for α-SMA and p-CREB visualization, 40× objective) or Leica DMi8 with Thunder Imaging System (for p-Smad-2 visualization, 40× objective), all equipped with LAS-X Software (Leica Microsystems GmbH, Wetzlar, Germany). […]

MRC-5 cells = assay: cAMP ELISA; type: cell-based, human; details: 10 µM, 30 min
Experimental: MRC-5 cells were seeded in standard culture medium for 24 h and then serum-starved for 2 h in HBSS. The study compounds (10 µM) were added to the MRC-5 cultures and after 30 min of incubation, the intracellular cAMP level in cell lysates was measured using a colorimetric cAMP ELISA Kit according to the manufacturer’s protocol (Cell Biolabs, INC., San Diego, CA, USA). Obtained results were normalized to total protein content in each sample. The experiments were run two times in duplicates.

[2] = tested on: TGF-β1-induced MRC-5 cells; assay: Protein kinase A activity; type: cell-based, human; details: 10 µM 30 min, then TGF-β1 30 min
Experimental: Protein Kinase A (PKA) activity in MRC-5 cells was determined using a PKA Colorimetric Activity Kit (Invitrogen, Carlsbad, CA, USA) according to the manufacturer’s protocol. MRC-5 cells were seeded in standard culture medium, and after 48 h they were serum-starved for 2 h in HBSS, followed by the addition of study compounds (10 µM) and incubation for 30 min. Finally, TGF-β1 was administered, and the samples were incubated for an additional 30 min. Whole cell lysates were used in the assay. The amount of PKA was normalized to the total protein content in each sample. The experiments were run two times in duplicates.

PDE1B = target: T1, PDE1B (Homo sapiens, UniProt Q01064); set-up: method as in PMID 31705904; details: published previously; read-out: PDE-IC50 1B; cited from earlier work
T1 construct: purchased SignalChem

PDE3A = target: T2, PDE3A (Homo sapiens, UniProt Q14432); set-up: method as in PMID 31705904; details: published previously; read-out: PDE-IC50 3A; cited from earlier work
T2 construct: purchased SignalChem

PDE5A = PDE5A (Homo sapiens, UniProt O76074); set-up: method as in PMID 31705904; details: published previously; read-out: PDE-IC50 5A; cited from earlier work
PDE1A = target: T3, PDE1A (Homo sapiens, UniProt P54750); assay: PDE-Glo assay, human recombinant PDE1A; type: biochemical; details: n.a. = not active; read-out: PDE-IC50 1A
T3 construct: purchased SignalChem
Experimental: Inhibitory activities of the investigated compounds against various subtypes of human recombinant (hr)PDEs, namely PDE1A, PDE1B, PDE1C, PDE3A, PDE3B, PDE4A, PDE4B, PDE4D, PDE7A, and PDE8A were assessed using a PDE-Glo^TM Assay Kit (Promega, Madison, WI, USA) according to the protocol provided by the manufacturer. Briefly, appropriate amounts of each enzyme (SignalChem, Richmond, B.C., Canada), diluted with PDE-Glo reaction buffer, were distributed on a 384-well plate (Thermo Scientific, Waltham, MA, USA). The investigated compounds were dissolved in DMSO, diluted with the same vehicle, and mixed with the reaction buffer at a v/v ratio of 1:5. Thereafter, 1 µL of these mixtures and 2.5 µL of the cAMP solution as a substrate were added. The final cAMP concentration was 0.05 µM. The samples were incubated for 10 min at 30 °C. […] Finally, 10 µL of PDE-Glo kinase reagent was added, and luminescence was measured using the POLARstar Omega plate reader (BMG LABTECH, Ortenberg, Germany). […] The relative activities (A, %) of all samples were calculated from the following equation: A = [(LUsample − LUblank)/(LUcontrol − LUblank)]·100%; where LUcontrol is the luminescence of a control sample in the absence of a PDE inhibitor, LUsample is a luminescence of an investigated sample in the presence of an inhibitor, and LUblank is a luminescence of a sample in the absence of enzyme (activity = 0). […]

T1 sequence (Q01064 whole entry): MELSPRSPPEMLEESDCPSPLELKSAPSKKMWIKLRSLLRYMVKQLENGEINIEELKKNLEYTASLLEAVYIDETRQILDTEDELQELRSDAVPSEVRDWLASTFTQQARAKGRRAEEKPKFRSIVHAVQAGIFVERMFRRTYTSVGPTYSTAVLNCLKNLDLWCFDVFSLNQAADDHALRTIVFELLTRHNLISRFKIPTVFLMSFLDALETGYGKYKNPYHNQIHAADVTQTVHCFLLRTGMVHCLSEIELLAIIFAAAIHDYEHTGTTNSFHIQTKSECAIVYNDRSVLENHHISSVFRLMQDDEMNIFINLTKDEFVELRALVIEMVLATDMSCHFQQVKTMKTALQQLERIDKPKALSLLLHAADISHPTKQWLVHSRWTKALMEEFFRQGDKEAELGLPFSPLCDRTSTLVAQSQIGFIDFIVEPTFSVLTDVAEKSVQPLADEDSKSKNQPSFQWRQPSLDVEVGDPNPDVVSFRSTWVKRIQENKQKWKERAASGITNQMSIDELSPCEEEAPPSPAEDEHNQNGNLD
T3 sequence (P54750 whole entry): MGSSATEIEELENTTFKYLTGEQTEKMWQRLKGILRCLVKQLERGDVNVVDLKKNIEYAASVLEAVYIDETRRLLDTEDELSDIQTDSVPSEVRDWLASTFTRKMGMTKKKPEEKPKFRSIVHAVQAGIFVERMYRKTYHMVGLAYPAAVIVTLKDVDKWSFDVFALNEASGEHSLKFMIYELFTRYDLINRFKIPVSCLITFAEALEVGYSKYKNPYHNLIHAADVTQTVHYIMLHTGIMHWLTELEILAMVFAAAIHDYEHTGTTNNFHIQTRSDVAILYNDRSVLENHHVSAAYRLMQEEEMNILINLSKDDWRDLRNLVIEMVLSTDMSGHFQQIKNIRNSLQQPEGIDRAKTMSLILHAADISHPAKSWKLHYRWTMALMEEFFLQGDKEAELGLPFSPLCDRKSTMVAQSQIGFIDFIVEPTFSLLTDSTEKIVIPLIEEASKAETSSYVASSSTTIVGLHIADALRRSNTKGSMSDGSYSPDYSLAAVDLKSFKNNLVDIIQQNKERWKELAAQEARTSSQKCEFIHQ
T2 sequence (Q14432 whole entry): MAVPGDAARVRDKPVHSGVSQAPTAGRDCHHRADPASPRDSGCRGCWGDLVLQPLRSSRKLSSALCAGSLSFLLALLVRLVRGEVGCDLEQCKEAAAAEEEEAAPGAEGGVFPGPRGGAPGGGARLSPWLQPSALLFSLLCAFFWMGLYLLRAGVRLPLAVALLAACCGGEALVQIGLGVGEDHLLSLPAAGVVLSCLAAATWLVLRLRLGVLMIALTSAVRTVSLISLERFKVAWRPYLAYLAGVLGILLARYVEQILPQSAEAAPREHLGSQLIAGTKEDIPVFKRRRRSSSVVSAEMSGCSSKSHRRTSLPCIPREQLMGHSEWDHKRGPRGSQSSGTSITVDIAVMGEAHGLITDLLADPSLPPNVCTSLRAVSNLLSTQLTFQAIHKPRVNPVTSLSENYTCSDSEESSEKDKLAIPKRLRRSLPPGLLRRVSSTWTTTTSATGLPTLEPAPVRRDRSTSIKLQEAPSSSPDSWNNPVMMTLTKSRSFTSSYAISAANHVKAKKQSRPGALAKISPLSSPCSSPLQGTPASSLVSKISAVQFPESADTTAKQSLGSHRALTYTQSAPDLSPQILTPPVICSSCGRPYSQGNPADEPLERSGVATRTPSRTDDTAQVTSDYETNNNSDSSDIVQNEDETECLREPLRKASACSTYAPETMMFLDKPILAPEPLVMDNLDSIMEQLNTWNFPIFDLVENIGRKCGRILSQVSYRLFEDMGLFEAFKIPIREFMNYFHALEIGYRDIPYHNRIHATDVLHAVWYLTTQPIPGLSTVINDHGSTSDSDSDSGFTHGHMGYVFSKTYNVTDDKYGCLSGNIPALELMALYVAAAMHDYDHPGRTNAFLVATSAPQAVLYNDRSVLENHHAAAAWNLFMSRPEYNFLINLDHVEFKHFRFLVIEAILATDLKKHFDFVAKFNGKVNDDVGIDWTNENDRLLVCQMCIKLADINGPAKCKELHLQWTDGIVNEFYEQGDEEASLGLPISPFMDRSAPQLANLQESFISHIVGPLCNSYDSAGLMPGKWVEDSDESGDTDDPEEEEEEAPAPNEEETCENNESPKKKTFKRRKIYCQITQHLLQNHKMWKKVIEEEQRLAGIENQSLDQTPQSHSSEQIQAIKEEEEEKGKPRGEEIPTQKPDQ

Compound	decrease of TGF-β1-induced nuclear localization of p-Smad-2 [1]	increase in cAMP level compared to control (MRC-5 cells) [fold]	cAMP level (MRC-5 cells; control 508.87)	Protein kinase A activity in TGF-β1-induced fibroblasts [2]	IC50 (PDE1B) [µM]	IC50 (PDE3A) [µM]	IC50 (PDE5A) [µM]	IC50 (PDE1A) [µM]
CCCCOc1nc2c(c(=O)n(C)c(=O)n2C)n1CCCC(=O)Nc1cc(C(C)(C)C)ccc1O [Compound 145, 4-(8-butoxy-1,3-dimethyl-2,6-dioxo-1,2,3,6-tetrahydro-7H-purin-7-yl)-N-(5-(tert-butyl)-2-hydroxyphenyl)butanamide]	57%	4.5	2262.07 fmol/mL/mg of protein	slightly lower	2.69	0.18	104	–
Cn1c(=O)c2c(nc(NCc3ccco3)n2CCCC(=O)NN=Cc2ccc(O)cc2O)n(C)c1=O [Compound 832, N′-(2,4-dihydroxybenzylidene)-4-(8-((furan-2-ylmethyl)amino)-1,3-dimethyl-2,6-dioxo-1,2,3,6-tetrahydro-7H-purin-7-yl)butanehydrazide]	a slight decrease	2.16	–	slightly lower	–	–	–	7.24
COc1nc2c(c(=O)n(C)c(=O)n2C)n1CC(=O)Nc1ccc(C(C)(C)C)cc1 [Compound 869, N-(4-(tert-butyl)phenyl)-2-(8-methoxy-1,3-dimethyl-2,6-dioxo-1,2,3,6-tetrahydro-7H-purin-7-yl)acetamide]	–	–	–	no significant change	–	–	–	–
CC(C)Cn1c(=O)n(C)c(=O)c2[nH]cnc21 [IBMX, 3-isobutyl-1-methyl-3,7-dihydro-1H-purine-2,6-dione, reference compound]	–	2.53	–	slightly lower	35.7	0.71	45.1	0.11
